In the first experiment the test system is HIV-1NL4-3. Put plainly: P4-MAGI assay. In kind it is cell-based. To be noted: Human immunodeficiency virus 1, 24 h, P4 cells, 24 hour incubation, β-galactosidase expression; read-out: P4-MAGI IC50. An excerpt: P4 cells were used to test the effects of compounds on virus fusion activity. P4 cells are HIV-1 infectable CD4^+ HeLa cells that bear the bacterial lacZ gene under the control of a minimal HIV-1 LTR. Charneau, et. al., J. Mol. Biol. 241:651-662 (1994). When these cells are infected with HIV-1, β-galactosidase is expressed due to Tat activation of the viral LTR. In this assay, P4 cells were infected with the laboratory adapted strain HIV-1NL4-3 at a multiplicity of infection of 1 in the presence of DEAE-Dextran. Immediately after addition of virus to the cells, increasing concentrations of compound were added to the cells. […] The effect on cell viability (TC50, concentration of compound that inhibits growth by 50%) was determined in mock-infected cells with the WST-1 Cell Proliferation Reagent (Roche Diagnostics).
For orientation: IC50 means the concentration that inhibits the measured activity by half. As to `C=C(C)[C@@H]1CC[C@]2(C(=O)NCc3cccc(C(=O)NCc4ccc(OCCCN(C)CCN(C)C)c(C(=O)OC)c4)c3)CC[C@]3(C)C(CCC4[C@@]5(C)CC[C@H](O)C(C)(C)C5CC[C@]43C)C12` (stereo partly shown) [Example 122], the IC50 worked out at 265 nM.

In the case of `C=C(C)[C@@H]1CC[C@]2(C(=O)NCc3cccc(-c4nc5cc(C(=O)O)ccc5[nH]4)c3)CC[C@]3(C)C(CCC4[C@@]5(C)CC[C@H](O)C(C)(C)C5CC[C@]43C)C12` (stereo partly shown) [Example 126], the half-maximal inhibitory concentration (IC50) came to 66 nM.

In the case of `C=C(C)[C@@H]1CC[C@]2(C(=O)NCc3cccc(-c4nc(-c5cccc(C(=O)O)c5)no4)c3)CC[C@]3(C)C(CCC4[C@@]5(C)CC[C@H](O)C(C)(C)C5CC[C@]43C)C12` (stereo partly shown) [Example 127], the concentration for half-maximal inhibition (IC50) worked out at 768 nM.

For the compound `C=C(C)[C@@H]1CC[C@]2(C(=O)NCc3cccc(-c4cccc(C(=O)O)c4)c3)CC[C@]3(C)C(CCC4[C@@]5(C)CC[C@H](O)C(C)(C)C5CC[C@]43C)C12` (stereo partly shown) [Example 128], the half-inhibitory concentration (IC50) turned out to be 1000 nM.

For the compound `C=C(C)[C@@H]1CC[C@]2(C(=O)NCc3cccc(-c4cccc(C(=O)N[C@@H](CC(C)C)[C@@H](O)CC(=O)O)c4)c3)CC[C@]3(C)C(CCC4[C@@]5(C)CC[C@H](O)C(C)(C)C5CC[C@]43C)C12` (stereo partly shown) [Example 129], the IC50 came out at 3600 nM.

`C=C(C)[C@@H]1CC[C@]2(C(=O)NCc3cccc(-c4cccc(C(=O)NCC(=O)OCC)c4)c3)CC[C@]3(C)C(CCC4[C@@]5(C)CC[C@H](O)C(C)(C)C5CC[C@]43C)C12` (stereo partly shown) [Example 131]: the 50% inhibitory concentration (IC50) stood at 6500 nM.

As to `CC(O)(CN1CCCC1)[C@@H]1CC[C@]2(C(=O)NCc3cccc(C(=O)NCCCCC(=O)O)c3)CC[C@]3(C)C(CCC4[C@@]5(C)CC[C@H](O)C(C)(C)C5CC[C@]43C)C12` (stereo partly shown) [Example 138], the IC50 came out at 550 nM.

For `C=C(C)[C@@H]1CC[C@]2(CC(=O)NCc3cccc(C(=O)NCc4cccc(C(=O)O)c4)c3)CC[C@]3(C)C(CCC4[C@@]5(C)CC[C@H](O)C(C)(C)C5CC[C@]43C)C12` (stereo partly shown) [Example 142], the IC50 is 3400 nM.

With `C=C(C)[C@@H]1CC[C@]2(C(=O)NCCc3cccc(C(=O)NC(Cc4ccc(O)cc4)C(=O)OC)c3)CC[C@]3(C)C(CCC4[C@@]5(C)CC[C@H](O)C(C)(C)C5CC[C@]43C)C12` (stereo partly shown) [Example 144], the 50% inhibitory concentration (IC50) was 204 nM.

As for `C=C(C)[C@@H]1CC[C@]2(C(=O)NCCc3cccc(C(=O)NC(Cc4ccc(O)cc4)C(=O)O)c3)CC[C@]3(C)C(CCC4[C@@]5(C)CC[C@H](O)C(C)(C)C5CC[C@]43C)C12` (stereo partly shown) [Example 145], the IC50 is 1100 nM.

Regarding `C=C(C)[C@@H]1CC[C@]2(C(=O)NCc3cc(C(=O)NCc4ccc(N(C)C)cc4)ccc3F)CC[C@]3(C)C(CCC4[C@@]5(C)CC[C@H](O)C(C)(C)C5CC[C@]43C)C12` (stereo partly shown) [Example 180], the IC50 came to 1000 nM.

Regarding `C=C(C)[C@@H]1CC[C@]2(C(=O)NCc3cc(C(=O)NCc4cccc(C(=O)OC)c4F)ccc3F)CC[C@]3(C)C(CCC4[C@@]5(C)CC[C@H](O)C(C)(C)C5CC[C@]43C)C12` (stereo partly shown) [Example 182], the IC50 stood at 600 nM.

Regarding `C=C(C)[C@@H]1CC[C@]2(C(=O)NCCc3cccc(C(=O)NCC4CCCN4C(=O)OC(C)(C)C)c3)CC[C@]3(C)C(CCC4[C@@]5(C)CC[C@H](O)C(C)(C)C5CC[C@]43C)C12` (stereo partly shown) [Example 203], the half-maximal inhibitory concentration (IC50) was 856 nM.

For the compound `C=C(C)[C@@H]1CC[C@]2(C(=O)NCCc3cccc(C(=O)NCC4CCCN4)c3)CC[C@]3(C)C(CCC4[C@@]5(C)CC[C@H](O)C(C)(C)C5CC[C@]43C)C12` (stereo partly shown) [Example 204], the half-inhibitory concentration (IC50) was 1940 nM.

For the compound `C=C(C)[C@@H]1CC[C@]2(C(=O)NCCc3cccc(C(=O)N4CCC(c5ccccc5)CC4)c3)CC[C@]3(C)C(CCC4[C@@]5(C)CC[C@H](O)C(C)(C)C5CC[C@]43C)C12` (stereo partly shown) [Example 205], the IC50 amounted to 1000 nM.

`C=C(C)[C@@H]1CC[C@]2(C(=O)NCc3cccc(COCc4cccc(C(=O)O)c4)c3)CC[C@]3(C)C(CCC4[C@@]5(C)CC[C@H](O)C(C)(C)C5CC[C@]43C)C12` (stereo partly shown) [Example 206]: the concentration for half-maximal inhibition (IC50) amounted to 444 nM.

Take `C=C(C)[C@@H]1CC[C@]2(C(=O)NCCc3cccc(C(=O)NC4CCC(C(=O)OC)CC4)c3)CC[C@]3(C)C(CCC4[C@@]5(C)CC[C@H](O)C(C)(C)C5CC[C@]43C)C12` (stereo partly shown) [Example 207]: the 50% inhibitory concentration (IC50) came out at 193 nM.

For `C=C(C)[C@@H]1CC[C@]2(C(=O)NCCc3cccc(C(=O)NC4CCC(C(=O)O)CC4)c3)CC[C@]3(C)C(CCC4[C@@]5(C)CC[C@H](O)C(C)(C)C5CC[C@]43C)C12` (stereo partly shown) [Example 209], the IC50 stood at 356 nM.

Consider `C=C(C)[C@@H]1CC[C@]2(C(=O)NCCc3cccc(C(=O)NCC4(C(=O)O)CC4)c3)CC[C@]3(C)C(CCC4[C@@]5(C)CC[C@H](O)C(C)(C)C5CC[C@]43C)C12` (stereo partly shown) [Example 219], for which the IC50 worked out at 396 nM.

As for `C=C(C)[C@@H]1CC[C@]2(C(=O)NCCc3cccc(OCC(O)c4ccc(C(=O)O)cc4)c3)CC[C@]3(C)C(CCC4[C@@]5(C)CC[C@H](O)C(C)(C)C5CC[C@]43C)C12` (stereo partly shown) [Example 220], the 50% inhibitory concentration (IC50) turned out to be 259 nM.

Consider `C=C(C)[C@@H]1CC[C@]2(C(=O)NCCc3cccc(C(=O)NCc4ncccc4C(=O)O)c3)CC[C@]3(C)C(CCC4[C@@]5(C)CC[C@H](O)C(C)(C)C5CC[C@]43C)C12` (stereo partly shown) [Example 228], for which the IC50 is 135 nM.

With `C=C(C)[C@@H]1CC[C@]2(C(=O)NCCc3cccc(C(=O)NCc4ccc(OCCCN5CC(C)NC(C)C5)cc4)c3)CC[C@]3(C)C(CCC4[C@@]5(C)CC[C@H](O)C(C)(C)C5CC[C@]43C)C12` (stereo partly shown) [Example 233], the IC50 amounted to 70 nM.

As for `C=C(C)[C@@H]1CC[C@]2(C(=O)NCCc3cccc(C(=O)NCc4ccc(OCCCN5CCNCC5)cc4)c3)CC[C@]3(C)C(CCC4[C@@]5(C)CC[C@H](O)C(C)(C)C5CC[C@]43C)C12` (stereo partly shown) [Example 238], the IC50 turned out to be 678 nM.

In the case of `C=C(C)[C@@H]1CC[C@]2(C(=O)NCCc3cccc(C(=O)NCc4ccc(OCCCn5cnc(C(=O)O)c5)c(C(=O)O)c4)c3)CC[C@]3(C)C(CCC4[C@@]5(C)CC[C@H](O)C(C)(C)C5CC[C@]43C)C12` (stereo partly shown) [Example 247], the IC50 was 417 nM.

With `C=C(C)[C@@H]1CC[C@]2(C(=O)NCCc3cccc(S(=O)(=O)NCc4cccc(C(=O)OC)c4)c3)CC[C@]3(C)C(CCC4[C@@]5(C)CC[C@H](O)C(C)(C)C5CC[C@]43C)C12` (stereo partly shown) [Example 248], the IC50 was found to be 208 nM.

Take `C=C(C)[C@@H]1CC[C@]2(C(=O)NCCc3cccc(S(=O)(=O)NCc4cccc(C(=O)O)c4)c3)CC[C@]3(C)C(CCC4[C@@]5(C)CC[C@H](O)C(C)(C)C5CC[C@]43C)C12` (stereo partly shown) [Example 249]: the IC50 was 143 nM.

With `C=C(C)[C@@H]1CC[C@]2(C(=O)NCc3cc(C(=O)NCCc4ccc(S(N)(=O)=O)cc4)ccc3F)CC[C@]3(C)C(CCC4[C@@]5(C)CC[C@H](O)C(C)(C)C5CC[C@]43C)C12` (stereo partly shown) [Example 259], the IC50 worked out at 175 nM.

For the compound `C=C(C)[C@@H]1CC[C@]2(C(=O)NCCc3cc(C(=O)NCc4ccc(C(=O)OC)cn4)ccc3F)CC[C@]3(C)C(CCC4[C@@]5(C)CC[C@H](O)C(C)(C)C5CC[C@]43C)C12` (stereo partly shown) [Example 260], the IC50 is 150 nM.

Turning to `C=C(C)[C@@H]1CC[C@]2(C(=O)NCCc3cc(C(=O)NCc4ccc(C(=O)O)cn4)ccc3F)CC[C@]3(C)C(CCC4[C@@]5(C)CC[C@H](O)C(C)(C)C5CC[C@]43C)C12` (stereo partly shown) [Example 263], the half-inhibitory concentration (IC50) is 198 nM.

Regarding `C=C(C)[C@@H]1CC[C@]2(C(=O)NCc3cccc(-c4noc(Cc5ccc(C#N)cc5)n4)c3)CC[C@]3(C)C(CCC4[C@@]5(C)CC[C@H](O)C(C)(C)C5CC[C@]43C)C12` (stereo partly shown) [Example 276], the IC50 is 10000 nM.

The same experiment, now with this note: Human immunodeficiency virus 1, text statement, less than about 100 nm; read-out: P4-MAGI assay IC50.
For `C=C(C)[C@@H]1CC[C@]2(C(=O)NCc3cccc(-c4nc5cc(C(=O)O)ccc5[nH]4)c3)CC[C@]3(C)C(CCC4[C@@]5(C)CC[C@H](O)C(C)(C)C5CC[C@]43C)C12` (stereo partly shown) [Example 126], the half-maximal inhibitory concentration (IC50) was below 100 nM.

The values are drawn from US20090275583A1, “ANTIVIRAL COMPOUNDS AND USE THEREOF” (Myriad Genetics, Incorporated, priority 2006, published 2009).
